Source: US20220412989A1, “COMPOSITIONS AND METHODS FOR DETECTING CELLS UNDERGOING FERROPTOSIS USING AN ANTIBODY” (THE TRUSTEES OF COLUMBIA UNIVERSITY IN THE CITY OF NEW YORK, priority 2020, published 2022)

Experiments:
Assay type in all cases: cell-based, human
HT-1080 cells [1] = assay: Nucleus area by immunofluorescence (DAPI, CellProfiler)
Description: HT-1080 (ATCC Cat #CRL-7951, RRID:CVCL_0317), A-673, SK-BR-3, SK-LMS-1 and Huh-7 cells were treated with 1 μM RSL3 for 4 h, 15 μM erastin for 8 h, 10 μM IKE for 8 h, 15 μM FINO2 for 8 h, 10 μM FIN56 for 8 h, 100 μM tBuOOH for 8 h, 1 μM staurosporine (STS) for 6 h, 2 μM camptothecin (CPT) for 24 h, 1 μM RSL3+5 μM Fer-1 for 4 h and 10 μM IKE+5 μM Fer-1 for 8 h on poly-lysine-coated cover slips (Sigma Aldrich P4832) in 24-well plate. Media were taken out and the cells were gently washed with PBS^++ (PBS with 1 mM CaCl2) and 0.5 mM MgCl2) twice. The cells were fixed and permeabilized by adding 200 μL/well of 4% paraformaldehyde (PFA) in PBS with 0.1% Triton X-100 (PBT), and incubated at room temperature for 18 min. The cells were then washed with PBT three times. Then the cells were blocked with 5% goat serum (ThermoFisher 50197Z) in PBT for 1 h at room temperature. The cells were incubated with purified mouse monoclonal antibodies (1:5 dilution), mouse mAb 3F3 FMA (1:500 dilution), Transferrin Receptor/CD71 Monoclonal Antibody, Clone: H68.4, Invitrogen (Thermo Fisher Scientific Cat #13-6800, RRID:AB_2533029, 1:250 dilution), Cd71 (D7G9X) XP® Rabbit mAb (Cell Signaling Technology Cat #13113, RRID:AB_2715594, 1:100 dilution), CD71 (3B8 2A1) (Santa Cruz Biotechnology Cat #sc-32272, RRID:AB_627167, 1:50 dilution), Tom20 (FL-145) (Santa Cruz Biotechnology Cat #sc-11415, RRID:AB_2207533, 1:250 dilution), PDI antibody [RL90]—ER Marker (Abcam Cat #ab2792, RRID:AB_303304, 1:100 dilution), Gm130 (D6B1) XP® Rabbit mAb (Cell Signaling Technology Cat #12480, RRID:AB_2797933, 1:3200 dilution), Anti-Malondialdehyde antibody (Abcam Cat #ab6463, RRID:AB_305484, 1:400 dilution), Anti-4 Hydroxynonenal antibody (Abcam Cat #ab46544, RRID:AB_722493, 1:50 dilution), ACSL4 Antibody (F-4) (Santa Cruz Biotechnology Cat #sc-365230, RRID:AB_10843105, 1:50 dilution), mouse mAb 1F83 (1:100 dilution), which specifically recognizes the malondialdehyde (MDA)-lysine adduct 4-methyl-1,4-dihydropyridine-3,5-dicarbaldehyde (MDHDC) (Yamada et al., 2001), in PBT with 1% BSA and 5% goat serum overnight at 4° C. The cells were washed with PBT for 5 min three times. The cells were incubated with Goat anti-Mouse IgG (H+L) Highly Cross-Adsorbed Secondary Antibody, Alexa Fluor 594 (Thermo Fisher Scientific Cat #A-11032, RRID:AB_2534091, 1:200 dilution) or Goat anti-Rabbit IgG (H+L) Highly Cross-Adsorbed Secondary Antibody, Alexa Fluor 488 (Thermo Fisher Scientific Cat #A-11034, RRID:AB_2576217, 1:200 dilution) at room temperature for 1 h. The cells were washed with PBT for 5 min three times. ProLong Diamond antifade mountant with DAPI (ThermoFisher P36962) was added to stain the nucleus. All images were captured on a Zeiss LSM 800 confocal microscope at Plan-Apochromat 63x/1.40 Oil DIC objective with constant laser intensity for all samples. When applicable, line-scan analysis was performed on representative confocal microscopy images using Zeiss LSM software to qualitatively visualize fluorescence overlap.
The quantification of the intensity of antibodies was analyzed using CellProfiler 3.1.8 (Carpenter et al., 2006) (CellProfiler Image Analysis Software, RRID:SCR_007358). Nuclei were firstly identified as primary objects using global minimum cross entropy strategy. […] Then mean intensities and size areas of nuclei, cytoplasm and plasma membranes were then measured and reported. […]

HT-1080 cells [2] = assay: Nucleus area by high-content analysis
Description: For the screening with five technical replicates, HT-1080 cells were washed with PBS, trypsinized and resuspended in cell culture medium. The cell suspension (2,000 cells in 50 μl per well) was dispensed into collagen (Sigma-Aldrich, St. Louis, Mass., USA) pre-coated 384-well plates (PerkinElmer 384-well CellCarrierUltra™). 24 h after seeding, medium was exchanged to medium containing 0.3 μM RSL3 (1 mM stock solution) dissolved in 100% dimethyl sulfoxide (DMSO) or DMSO alone. 50 μl medium with 0.3 μM RSL3/DMSO was added per well. The cells were then incubated (37° C.; 5% CO2) for 2.5 h prior to fixation and antibody staining. […] Finally, plates were recorded using the automated Operetta® microscope with the 20× high NA objective for high-resolution images (PerkinElmer, USA). For quantification, three images of each condition were recorded using three channels (Hoechst, Alexa488, TRITC). […] Quantification on cell number, cytoplasmic intensity, nucleus intensity and spot number per cell was performed using the Columbus Software (PerkinElmer, USA).
Multiparametric image analysis was performed using Columbus Software 2.8.0 (PerkinElmer). […] In a next step we have calculated the morphology and Alexa488 fluorescence intensity in each cell region (nucleus and cytoplasm). […] Each spot was detected as a small region within the corresponding image by having a higher intensity than its surrounding area. […]

HT-1080 cells [3] = assay: Cell death after RSL3 incubation; settings: 1 μM RSL3, 4 h incubation

## O=S(=O)(NC1CCCCC1)c1ccc2c(c1)C(=NO)c1cc(S(=O)(=O)NC3CCCCC3)ccc1-2 [FIN56, ferroptosis inducer 56]
HT-1080 cells [1]; 10 μM FIN56, 8 h incubation
  nuclei shrank by (mean nucleus area): 17%

## CCOc1ccccc1-n1c(C(C)N2CCN(C(=O)COc3ccc(Cl)cc3)CC2)nc2ccccc2c1=O (centres unmarked) [erastin]
HT-1080 cells [1]; 15 μM erastin, 8 h incubation
  nuclei shrank by (mean nucleus area): 21%

## CC(C)Oc1ccc(C(=O)Cn2ccnc2)cc1-n1c(CN2CCN(C(=O)COc3ccc(Cl)cc3)CC2)nc2ccccc2c1=O [IKE, imidazole ketone erastin]
HT-1080 cells [1]; 10 μM IKE, 8 h incubation
  nuclei shrank by (mean nucleus area): 12%

## CC1(CCO)CC2(CCC(C(C)(C)C)CC2)OO1 (centres unmarked) [FINO2, ferroptosis inducer endoperoxide]
HT-1080 cells [1]; 15 μM FINO2, 8 h incubation
  nuclei shrank by (mean nucleus area): 49%

## COC(=O)c1ccc([C@@H]2c3[nH]c4ccccc4c3C[C@@H](C(=O)OC)N2C(=O)CCl)cc1 [RSL3, (1S, 3R)-RSL3]
HT-1080 cells [2]; RSL3-treated plates 4-6
  decrease of average nucleus area vs DMSO group: 17%
HT-1080 cells [2]; RSL3-treated plates 4-6 (DMSO group 240 μm^2)
  average nucleus area: 200 μm^2
HT-1080 cells [1]; 1 μM RSL3, 4 h incubation
  nuclei shrank by (mean nucleus area): 27%
HT-1080 cells [3]
  HT-1080 cells died: 30%
